Measured values taken from US6211168A, “Methods for preparation and use of 1α,24 (S)-dihydroxy vitamin D2” (Bone Care International, Inc, priority 1995, dated 2001).
Where two headings read alike, the source gives them in different places. Each block holds one molecule with its values, some of them ahead of it.

Columns and labels:
vitamin D receptor (VDR) = molecular target: T1, vitamin D receptor (VDR) (Homo sapiens, UniProt P11473); assay: vitamin D-dependent transcriptional activation: growth hormone production in transfected COS-1 cells; format: cell-based; settings: inducer molar concentration 10^-9; total minus ethanol control
T1 construct: RXR partner endogenous (monkey)
T1 sequence (P11473 1-427): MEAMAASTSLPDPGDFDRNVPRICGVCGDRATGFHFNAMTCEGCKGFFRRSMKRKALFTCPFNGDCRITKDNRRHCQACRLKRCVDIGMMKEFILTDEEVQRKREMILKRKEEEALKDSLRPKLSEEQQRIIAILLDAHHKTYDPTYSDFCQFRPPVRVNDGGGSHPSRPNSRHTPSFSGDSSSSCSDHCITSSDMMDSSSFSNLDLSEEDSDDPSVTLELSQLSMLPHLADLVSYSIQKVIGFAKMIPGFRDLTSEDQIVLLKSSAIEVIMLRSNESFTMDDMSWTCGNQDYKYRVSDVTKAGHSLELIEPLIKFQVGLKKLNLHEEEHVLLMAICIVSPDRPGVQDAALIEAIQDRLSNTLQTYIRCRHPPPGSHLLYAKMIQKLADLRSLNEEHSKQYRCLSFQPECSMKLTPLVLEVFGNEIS
Method: The biological activity in vitro of chemically synthesized 1α,24(S)-(OH)2 D2 and 1α,24(R)-(OH)2 D2 was measured using a vitamin D-dependent transcriptional activation model system in which a vitamin D receptor (VDR)-expressing plasmid pSG5-hVDR1/3and a plasmid p(CT4)^4 TKGH containing a Growth Hormone (GH)-gene, under the control of a vitamin D-responsive element (VDRE) were co-transfected into Green monkey kidney, COS-1 cells. DNA's for these two vectors were supplied by Dr. Mark Haussler, Department of Biochemistry, University of Arizona, Tucson, Ariz.
Tranfected cells were incubated with vitamin D metabolites and growth hormone production was measured.

[1] = test system: 1,25-(OH)2 D3 receptor site; settings: Ishizuka et al., Steroids 1981, 1982; cited from earlier work
[2] = test system: human osteoporotic patients; settings: humans; cited from earlier work
[3] = blood levels of metabolites in osteoporotic women administered 1α-OH-D2; format: in vivo, human; settings: one day after a single 2 μg dose of 1α-OH-D2, women
Method: An increase in the production of 1α,24(S)-(OH)2 D2 relative to 1α,25-(OH)2 D2 has also been observed by the present inventors in human females who received 1α-OH-D2 as part of an investigation of that drug for the treatment of osteoporosis. Following either a single dose of 2 μg of 1α-OH-D2 or daily doses of 8 μg/day for one week, blood was collected and analyzed for the metabolites 1α,24(S)-(OH)2 D2 and 1α,25-(OH)2 D2. Lipid was extracted from the blood, and the metabolites were purified by HPLC using standard methods and quantified with the radioreceptor assay produced by Incstar (Stillwater, Minn.). One day after a single 2 μg dose, the level of 1α,24(S)-(OH)2 D2 was undetectable with the 1α,25-(OH)2 D2 level being approximately 11 pg/ml. In contrast, one day following the last dose of 8 μg, the level of 1α,24(S)-(OH)2 D2 averaged 9 pg/ml with the 1α,25-(OH)2 D2 level averaging 30 pg/ml.

[4] = format: in vivo, rat
Method: Vitamin D2 or 24-OH-D2 was administered (either oral or intraperitoneal supplementation) to vitamin D-deficient rats. Lipid extracts of the plasma were prepared and the metabolites purified by the method of Horst et al. (Horst, A. L., Koszewski, N. J. and Reinhardt, T. A., Biochem., 29:578-82 (1990)) described below for synthesyzing standard biological 1α,24-(OH)2 D2.
Standard biological 1α,24-(OH)2 D2 was synthesized in vitro from 24-OH-D2 by incubating 10 μg of 24-OH-D2 in flask containing 5 ml of 20% kidney homogenates made from vitamin D-deficient chicks. The product of this reaction was isolated by HPLC and identified by mass spectrometry.

Net vitamin D-inducible GH-production (vitamin D receptor (VDR)): 36 ng/mL
SMILES: C=C1/C(=C\C=C2/CCC[C@]3(C)[C@@H]([C@H](C)/C=C/[C@](C)(O)C(C)C)CC[C@@H]23)C[C@@H](O)C[C@@H]1O [1α,24(R)-(OH)2 D2, 1α,24(R)-dihydroxy vitamin D2]

SMILES: C=C1/C(=C\C=C2/CCC[C@]3(C)[C@@H]([C@H](C)CC[C@@H](O)C(C)C)CC[C@@H]23)C[C@@H](O)C[C@@H]1O [1α,24(R)-(OH)2 D3, 1α,24(R)-dihydroxyvitamin D3]
binding to the 1,25-(OH)2 D3 receptor site relative to 1,25-(OH)2 D3 [1]: more tightly than does 1,25-(OH)2 D3 itself

SMILES: C=C1/C(=C\C=C2/CCC[C@]3(C)[C@@H]([C@H](C)CCCC(C)C)CC[C@@H]23)C[C@@H](O)C[C@@H]1O [1α-(OH) D3, 1α-hydroxy vitamin D3]
tolerability of dosage levels of 2.0 μg/day or greater [2]: not safely obtained

blood level of metabolite 1α,24(S)-(OH)2 D2 [3]: undetectable
SMILES: C=C1/C(=C\C=C2/CCC[C@]3(C)[C@@H]([C@H](C)/C=C/[C@H](C)C(C)C)CC[C@@H]23)C[C@@H](O)C[C@@H]1O [1α-OH-D2, 1α-hydroxy vitamin D2]

SMILES: C=C1CC[C@H](O)C/C1=C/C=C1\CCC[C@]2(C)[C@@H]([C@H](C)/C=C/C(C)(O)C(C)C)CC[C@@H]12 (stereo partly shown) [24-OH-D2, 24-hydroxyvitamin D2]
plasma metabolite 1α,24-(OH)2 D2 found after administration ([4]; rat, in vivo): co-migrated on HPLC with the standard 1α,24-(OH)2 D2

SMILES: C=C1CC[C@H](O)C/C1=C/C=C1\CCC[C@]2(C)[C@@H]([C@H](C)/C=C/[C@H](C)C(C)C)CC[C@@H]12 [vitamin D2]
plasma metabolite 1α,24-(OH)2 D2 found after administration ([4]; vitamin D-deficient rats, oral or intraperitoneal, HPLC of plasma lipid extracts): co-migrated on HPLC with the standard 1α,24-(OH)2 D2

SMILES: C=C1CC[C@H](O)C/C1=C/C=C1\CCC[C@]2(C)[C@@H]([C@H](C)CCCC(C)C)CC[C@@H]12 [vitamin D3]
24-hydroxylated metabolite in plasma after administration ([4]; comparable vitamin D-deficient rats): no detectable 24-OH-D3
